Assay results reported in patent US20230002374A1, “GPR52 MODULATOR COMPOUNDS” (Heptares Therapeutics Limited, priority 2019, published 2023).

Key:
[1] = Pharmacokinetic profiling in rat (IV and PO); format: in vivo, male Sprague-Dawley rats; settings: male, Sprague-Dawley, plasma, n = 3, mean ± standard deviation
Method: The pharmacokinetic profiles of Example 1 were assessed in male Sprague-Dawley rats via intravenous (IV) and oral (per os, PO) routes of delivery. Pharmacokinetic data (mean values±standard deviation) for Example 1 of the invention are detailed in Table 5. Methods: For pharmacokinetic analysis, groups of three male Sprague-Dawley rats, ranging in weight between 200 and 230 g, were administered a single dose of Example 1 via IV or PO route, using the doses, dose volumes and vehicles specified in Table 5. […] WinNonlin v8.2 statistics software (Pharsight Corporation, California, USA) was used to generate pharmacokinetic parameters using non-compartmental analysis.

[2] = Brain penetration in rat (unbound brain-to-plasma ratio, IV); format: in vivo, male Sprague-Dawley rats; settings: male, Sprague-Dawley, brain and plasma, 1 mg/kg, 10 min post-dose, n = 3
Method: Plasma and brain exposure were evaluated to assess the brain penetration of Example 1, following IV administration. Unbound brain-to-plasma ratio (Kp,uu) was calculated, as detailed in Table 5, following experimental determination of binding in rat plasma and brain homogenate. Methods: For brain penetration assessment, male Sprague-Dawley rats (n=3) were administered a single 1 mg/kg dose (formulated in 10% DMAC+10% Solutol HS15+80% saline) via the IV route. After 10 min post-dose, animals were sacrificed and brains extracted, homogenised with 2 volumes (w/v) of 50 mM sodium phosphate buffer (pH 7.4), and analysed by LC-MS/MS. Blood samples were removed at the same time point via tail vein bleed, centrifuged and the plasma analysed by LC-MS/MS. To permit calculation of unbound brain-to-plasma ratio (Kp,uu), test compound binding in rat plasma and brain homogenate was performed, using Rapid Equilibrium Dialysis (RED). […] Fraction unbound (Fu) in plasma and brain was calculated using the following formula, then used to correct total plasma and brain concentrations to derive the Kp,uu: Fraction bound=(Total plasma or brain ratio)−(Total buffer ratio)/Total plasma or brain ratio Fraction unbound (Fu,brain or plasma)=1−Fraction bound For correction of dilution in brain binding assay: Undiluted Fu,brain=(1/dilution factor)/((1/Fv diluted))−1)+(1/dilution factor) Where dilution factor=4

[3] = test system: D-amphetamine-induced hyperlocomotor response; test: Amphetamine-induced locomotor activity in rat; format: in vivo, male Sprague-Dawley rats; settings: 10 mg/kg PO, 60 min before D-amphetamine SC; activity over two hours
Method: The rat amphetamine-induced locomotor hyperactivity test is used to model the enhanced mesolimbic dopaminergic activity thought to contribute to psychosis in humans. […] Male Sprague-Dawley rats (200-250 g) were housed in groups with a 12 h light/dark cycle (lights on at 07.00), at an ambient temperature of 21±2° C. and with standard pelleted diet and water ad libitum. Testing was carried out in the light phase. On the day of the experiment, animals were habituated to the locomotor cages for a 60-minute period.
Locomotor activity was assessed for a two hour period after D-amphetamine treatment. Data are back-transformed means, adjusted for differences between treatment groups in activity during the 30 minutes prior to treatment with test compound or vehicle (n=10-12). Analysis was by general linear model with treatment, cohort and rack as factors. SEMs were calculated from the residuals of the statistical model.
Significant differences vs D-amphetamine are represented as *p<0.05, **p<0.01, ***p<0.001.

[4] = test system: subchronic PCP induced cognitive deficit; test: Subchronic PCP-induced reversal learning deficit in rat; format: in vivo, female Lister Hooded rats; settings: 2 h prior to testing; for reversal of subchronic PCP reversal learning deficit (percent correct responding, reversal phase): vs vehicle-treated subchronic PCP group
Method: Testing was carried out in the light phase. Rats underwent operant training firstly to press the left/right lever for a food reward in the presence or absence of a visual cue, and then to respond to the opposite contingency. The reversal learning task was introduced as follows. On the day before each reversal task session, a full 30-minute operant training session was conducted in order to ensure stable responding. In the initial task, animals were first exposed to a five-minute period during which the contingency (cue position relative to active lever) was the same as for the operant training session. This was followed by a 2-minute time-out period, which was signalled by the house-light being turned off. In the subsequent 5-minute period (reversal task), the contingency was reversed. Responses made on the correct and incorrect levers were recorded. Animals undertook several of these reversal learning task sessions before the beginning of the drug studies in order to ensure that they attained a stable level of performance in both phases of the task. […] At this stage, training ceased and rats were treated with PCP (2 mg/kg, IP or vehicle 0.9% saline, IP) for 7 days followed by at least 7-days washout period.
In the initial phase, the reward contingency was the same as the previous day and in the reversal phase the reward contingency was reversed.
Data are presented as mean total number of lever presses (+SEM) and percent correct response (+SEM). […] Statistical significance was assumed when P<0.05 and was determined as follows: one-way ANOVA (IBM SPSS Statistics 22) was performed in order to detect main effect of drug treatment in the initial and reversal tasks. Where a significant effect was detected, a post-hoc LSD t-test was performed in order to compare treatment groups versus the appropriate control in the reversal phase of the test.
Data are shown as mean±s.e.m. % correct responding (n=8-10) and were analysed by ANOVA and post-hoc Student's t-test.
Data are shown as the mean total number of lever presses, correct responses are shown as clear bars and incorrect responses are shown as shaded bars (n=8-10).

Compound	clearance ([1]; Rat IV, 1 mg/kg) [mL/min/kg]	bioavailability ([1]; Rat PO, 3 mg/kg) [%]	Kp uu at 10 min [2]	reduction of the D-amphetamine-induced hyperlocomotor response [3]	reversal of subchronic PCP reversal learning deficit (percent correct responding, reversal phase) ([4]; 10 mg/kg PO)	reversal of subchronic PCP reversal learning deficit (percent correct responding, reversal phase) ([4]; 30 mg/kg PO)	effect on total number of lever presses ([4]; 3, 10 and 30 mg/kg PO, scPCP treated rats)
O=C1NCCc2c1cnn2-c1ccnc(Cc2cc(F)cc(C(F)(F)F)c2)c1 [Example 1, 1-(2-(3-fluoro-5-(trifluoromethyl)benzyl)pyridin-4-yl)-1,5,6,7-tetrahydro-4H-pyrazolo[4,3-c]pyridin-4-one]	16.4 ± 1	40.4 ± 6	0.35 ± 0.03	reached statistical significance at 10 mg/kg	significantly (P<0.05−P<0.001) reversed the deficit	significantly (P<0.05−P<0.001) reversed the deficit	no significant effects
Cc1cc(-n2nc(Cc3cc(F)cc(C(F)(F)F)c3)nc2C)ccc1C(N)=O [FTBMT, reference compound]	–	–	–	showed a trend towards a reduced D-amphetamine-induced hyperlocomotor response but statistical significance was not reached	–	–	–
